Earlier results, collected in patent US6645986B2 (Pfizer Products, Inc., priority 2000, dated 2003).
Counter-ions that a name gives are not always drawn.

Details: compared with the anhydrous mesylate salt

C[C@@H]([C@@H](O)c1ccc(O)cc1)N1CCC(O)(c2ccccc2)CC1 [mesylate salt trihydrate, (1S,2S)-1-(4-hydroxyphenyl)-2-(4-hydroxy-4-phenylpiperidin-1-yl)-1-propanol mesylate trihydrate]
stability of crystalline form: more stable crystalline form than the anhydrous mesylate salt
